According to patent publication US8349834B2, “Dioxolane derivates for the treatment of cancer” (Clavis Pharma AS, priority 2005, dated 2013):
Where two headings read alike, the source gives them in different places.

Key:
THP-1 cells [1] = test system: THP-1 cells
Description: (§1) The U937 and THP-1 cell lines were seeded, 20 000 cells per well, in 96-well-plates. 50 μl medium ( ) was added to each well. At the same time test compounds were added in 5 different concentrations and incubated for 48 hours. The CellTiter 96® Non-Radioactive cell proliferation assay (Promega) was used to study the cytotoxicity of test in these cells. This assay is a colorimetric method for determining the number of viable cells in proliferation or chemosensitivity assays. […] MTS is bioreduced by cells into a formazan product that is soluble in tissue culture medium. The absorbance of the formazan at 490 nm can be measured directly from 96 well assay plates without additional processing.

U937 cells [2] = assay: CellTiter 96 MTS cytotoxicity in U937 cells; details: U937, 48 hours; for IC50: read-out: U937 cells IC50 μM ± SD, MTS
Description: as §1

U937 cells [3] = test system: U937 cells
Description: as §1

THP-1 cells [4] = assay: CellTiter 96 MTS cytotoxicity in THP-1 cells; details: THP-1, 48 hours; for IC50: read-out: THP-1 cells IC50 μM ± SD, MTS
Description: as §1

several cell lines = details: prior art references; cited from earlier work
MaTu/Adr cells = assay: in-vitro activity in breast tumour line MaTu and adriamycin resistant subline MaTu/Adr; format: cell-based; details: MaTu/Adr vs. MaTu
HeLa/mut cells = assay: MTT growth inhibition in cervical cancer cell line HeLa/mut; format: cell-based, human; details: for IC50: 4 days incubation, MTT, read-out: IC50 μM ± Standard Deviation
Description: The cervical cancer cell line HeLa/mut was seeded, 5×10^3 cells per well, in 96-well-plates. The medium was RMPI 1640 with 2 mM Glutamine and 10% Foetal Bovine Serum. 24 hours later the test compounds were added in 6 concentrations. The cells were incubated for 4 days. The MTT solution was added to each well and incubated for 4 hours. The samples were read by an ELISA reader at 540 nm. The IC50 values were determined from growth curves. The test compounds were troxacitabine elaidic amid, troxacitabine petroselaidoate, troxacitabine-petroselaidic amide and troxacitabine γ-linolenoate.

CCCCC/C=C\C/C=C\C/C=C\CCCCC(=O)Nc1ccn([C@@H]2CO[C@H](CO)O2)c(=O)n1 [Troxacitabine N^4-6,9,12-linolenic acid amide]
cytotoxicity in words (THP-1 cells [1]): even more active than the other compounds
IC50 (U937 cells [2]): 0.007 µM
cytotoxicity in words (U937 cells [3]): even more active than the other compounds
IC50 (THP-1 cells [4]): 0.085 µM

CCCCCCCCCCC/C=C\CCCCC(=O)OC[C@H]1OC[C@@H](n2ccc(N)nc2=O)O1 [Troxacitabine-2′-hydroxymethyl-petroselinoate]
cytotoxicity in words (U937 cells [2]): even more active than the other compounds
IC50 (U937 cells [2]): 0.007 µM
cytotoxicity in words (THP-1 cells [4]): even more active than the other compounds
IC50 (THP-1 cells [4]): 0.09 µM

CCCCCCCC/C=C/CCCCCCCC(=O)OC[C@H]1OC[C@@H](n2ccc(N)nc2=O)O1 [Troxacitabine-5′-elaidic acid ester, reference compound]
IC50 (U937 cells [2]): 0.06 µM
IC50 (THP-1 cells [4]): 0.06 µM

CCCCCCCCC=CCCCCCCCC(=O)OCC1OCC(n2ccc(N)nc2=O)O1 (stereo not drawn) [Troxacitabine-5′-oleate, reference compound]
IC50 (U937 cells [2]): 0.09 µM
IC50 (THP-1 cells [4]): 0.07 µM

CCCCCCCCC=CCCCCCCCC(=O)Nc1ccn(C2COC(CO)O2)c(=O)n1 (stereo not drawn) [oleic acid amid derivative]
times better than the elaidic counterpart (several cell lines): 2 to 5 times

CCCCCCCC/C=C/CCCCCCCC(=O)Nc1ccn([C@@H]2CO[C@H](CO)O2)c(=O)n1 [troxacitabine elaidic-amide, Troxacitabine N^4-Elaidic Acid Amide]
resistance factor (MaTu/Adr cells): 6

CCCCCCCCCCC/C=C/CCCCC(=O)OC[C@H]1OC[C@@H](n2ccc(N)nc2=O)O1 [troxacitabine petroselaidoate, Troxacitabine-2′-hydroxymethyl-petroselaidoate]
IC50 (U937 cells [2]): 0.08 µM
IC50 (HeLa/mut cells): 0.18 ± 0.12 µM
fold more active than troxacitabine elaidic amid (HeLa/mut cells; relative to troxacitabine elaidic amide): 20 fold
IC50 (THP-1 cells [4]): 0.06 µM

CCCCC/C=C\C/C=C\C/C=C\CCCCC(=O)OC[C@H]1OC[C@@H](n2ccc(N)nc2=O)O1 [troxacitabine γ-linolenoate, Troxacitabine 2′-hydroxymethyl-6,9,12-linolenoate]
IC50 (U937 cells [2]): 0.09 µM
IC50 (HeLa/mut cells): 0.83 ± 0.59 µM
IC50 (THP-1 cells [4]): 0.16 µM

CCCCCCCCCCC/C=C/CCCCC(=O)Nc1ccn([C@@H]2CO[C@H](CO)O2)c(=O)n1 [troxacitabine-petroselaidic amide, Troxacitabine N^4-petroselaidic acid amide]
IC50 (U937 cells [2]): 0.02 µM
IC50 (HeLa/mut cells): 0.15 ± 0.07 µM
IC50 (THP-1 cells [4]): 0.08 µM

CCCCCCCCCCC/C=C\CCCCC(=O)Nc1ccn([C@@H]2CO[C@H](CO)O2)c(=O)n1 [troxacitabine-petroselinic amide, Troxacitabine N^4-petroselinic acid amide]
cytotoxicity in words (U937 cells [2]): even more active than the other compounds
cytotoxicity in words (THP-1 cells [4]): even more active than the other compounds

CCCCCCCC/C=C/CCCCCCCC(=O)Nc1ccn(C2COC(CO)O2)c(=O)n1 (stereo not drawn) [α-troxacitabine N4-elaidic acid amide, reference compound]
IC50 (U937 cells [2]): 10 µM
